Experimental data taken from ChEMBL document CHEMBL1201862, “PubChem BioAssay data set” (2004).
Blank lines part the entries; values can stand above or below the molecule they belong to. Calls of active or inactive are those of the source.

How the values were obtained:
[1] = target: T1, Tyrosine-protein phosphatase non-receptor type 7 (Homo sapiens, UniProt P35236); test: HePTP tyrosine phosphatase activity blockers – biochemical, absorbance, leukemia target, primary screen (AID 521); assay type: functional
T1 sequence (P35236 whole entry): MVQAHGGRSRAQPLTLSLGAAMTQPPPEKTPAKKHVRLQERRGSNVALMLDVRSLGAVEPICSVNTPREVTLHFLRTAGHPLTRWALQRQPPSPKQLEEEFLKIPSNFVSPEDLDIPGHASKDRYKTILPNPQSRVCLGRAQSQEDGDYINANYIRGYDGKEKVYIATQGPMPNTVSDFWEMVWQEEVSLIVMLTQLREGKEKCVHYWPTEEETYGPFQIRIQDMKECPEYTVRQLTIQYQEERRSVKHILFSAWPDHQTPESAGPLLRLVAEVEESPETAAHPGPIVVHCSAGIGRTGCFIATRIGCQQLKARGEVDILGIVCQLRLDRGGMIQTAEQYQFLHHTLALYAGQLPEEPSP

[2] = HIV-1 Vif–A3G interaction blockers – biochemical, TR-FRET, GST-Vif 1-94, biotin-A3G peptide, dose response retest, primary screen (AID 1117319); assay type: functional;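 also: TR-FRET signal of purified GST-Vif binding a biotinylated A3G peptide; inhibitors lower the FRET signal by blocking Vif and A3G binding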
[3] = target: Mitogen-activated protein kinase 10 (Homo sapiens, UniProt P53779); test: Dose response biochemical screening assay for inhibitors of c-Jun N-Terminal Kinase 3 (JNK3). [Related pubchem assays: 746 ]
[4] = target: T2, Aryl hydrocarbon receptor (Homo sapiens, UniProt P35869); test: Luminescence-based cell-based high throughput dose response assay for activators of the Aryl Hydrocarbon Receptor (AHR). [Related pubchem assays: 2796 (Primary screen (AHR activators in singlicate)), 2845 (Confirmation screen (AHR activators in triplicate)), 434939 (Counterscreen (PXR activators in triplicate)), 2804 (Summary (AHR activators))]; assay type: ADME
T2 sequence (P35869 whole entry): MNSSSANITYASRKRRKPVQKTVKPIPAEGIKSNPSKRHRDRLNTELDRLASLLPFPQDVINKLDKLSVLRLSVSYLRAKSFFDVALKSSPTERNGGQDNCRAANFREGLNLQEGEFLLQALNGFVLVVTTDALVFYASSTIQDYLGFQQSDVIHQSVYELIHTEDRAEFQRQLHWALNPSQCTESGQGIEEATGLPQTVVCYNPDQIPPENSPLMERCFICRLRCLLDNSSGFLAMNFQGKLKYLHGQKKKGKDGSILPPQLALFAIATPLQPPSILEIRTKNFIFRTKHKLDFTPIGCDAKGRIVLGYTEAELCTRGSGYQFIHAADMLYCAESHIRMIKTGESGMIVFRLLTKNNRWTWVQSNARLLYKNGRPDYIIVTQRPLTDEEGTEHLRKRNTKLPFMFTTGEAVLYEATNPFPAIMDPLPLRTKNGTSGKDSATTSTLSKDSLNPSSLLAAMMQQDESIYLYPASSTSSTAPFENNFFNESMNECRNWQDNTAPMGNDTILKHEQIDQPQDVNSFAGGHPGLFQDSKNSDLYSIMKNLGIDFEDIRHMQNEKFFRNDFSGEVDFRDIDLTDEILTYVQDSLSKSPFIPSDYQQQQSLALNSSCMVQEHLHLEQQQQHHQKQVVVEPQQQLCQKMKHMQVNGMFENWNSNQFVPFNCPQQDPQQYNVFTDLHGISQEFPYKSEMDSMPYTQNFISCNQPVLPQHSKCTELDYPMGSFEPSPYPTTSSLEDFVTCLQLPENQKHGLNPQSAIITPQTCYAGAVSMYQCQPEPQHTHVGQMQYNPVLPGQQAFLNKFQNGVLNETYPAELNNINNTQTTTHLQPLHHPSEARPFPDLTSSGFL

[5] = off-target signal loss in HeLa-CEM21 co-culture – HeLa F-luc CTL cells, cherry-picked, counter-screen for HIV-1 Env fusion inhibitor project, dose response (AID 652040); assay type: functional, cell-based;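 also: potency for signal decrease marking cytotoxic or nonspecific inhibition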
[6] = blockers of HIV-1 ZM109 envelope-driven cell-cell fusion – HeLa effector, CEM target cells, luciferase, cherry-pick, dose response (AID 652058); assay type: functional, cell-based;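 also: luciferase signal from HIV-1 Env mediated cell-cell fusion of effector and target cells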
[7] = blockers of HIV-1 envelope-mediated cell-cell fusion – cherry-pick, dose response (AID 652057); assay type: functional, cell-based
[8] = HIV-1 AD8 envelope cell-cell fusion blockers – cherry-pick, dose response (AID 652062); assay type: functional, cell-based;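 also: luciferase signal from cell-cell fusion driven by HIV-1 clade B AD8 Env; potency is for inhibitors of fusion seen as a drop in luminescence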

Chain of Mitogen-activated protein kinase 10 (P53779 whole entry): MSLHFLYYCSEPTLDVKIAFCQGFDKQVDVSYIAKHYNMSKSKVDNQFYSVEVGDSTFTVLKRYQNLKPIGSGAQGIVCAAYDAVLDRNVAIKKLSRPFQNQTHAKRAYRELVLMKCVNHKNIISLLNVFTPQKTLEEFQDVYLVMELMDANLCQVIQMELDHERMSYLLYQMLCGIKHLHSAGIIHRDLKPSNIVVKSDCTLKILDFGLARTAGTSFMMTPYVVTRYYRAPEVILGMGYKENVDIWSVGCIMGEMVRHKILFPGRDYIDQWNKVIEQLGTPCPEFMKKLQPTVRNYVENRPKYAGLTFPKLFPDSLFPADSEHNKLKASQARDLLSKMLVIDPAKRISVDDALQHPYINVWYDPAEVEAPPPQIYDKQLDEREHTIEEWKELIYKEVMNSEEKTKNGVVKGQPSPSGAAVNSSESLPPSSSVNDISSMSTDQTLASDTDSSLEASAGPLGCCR

IC50 [1]: 0.92 µM (active)
Compound: CC(=O)OCC1=C(C(=O)O)N2C(=O)[C@@H](NC(=O)Cc3cccs3)[C@H]2SC1 [CEPHALOTHIN SODIUM]

IC50 [2]: > 100 µM (active)
Compound: COc1ccc(S(=O)(=O)NC2CC(C)(C)NC(C)(C)C2)c(C)c1C

IC50 [3]: 10.6 µM (not active)
Compound: Cc1ccccc1-n1nc(C)c2cc(C(=O)NCc3cccnc3)sc21

EC50 [4]: 0.861 µM (active)
Compound: O=C(NC(=S)Nc1ccc(F)c(Cl)c1)C1CC1

IC50 [3]: 4.19 µM (active)
Compound: COc1cc(NC(=O)C2CC(c3cccc(OC)c3OC)=NO2)cc(OC)c1OC (centres undefined)

Second part, the molecule before the results:

Compound: CC(NC(=O)c1ccco1)C(c1cccs1)N1CCOCC1 (centres undefined)
IC50 [1]: > 100 µM (not active)

Compound: O=C(O)C1(c2ccc(Cl)cc2)CCC1
IC50 [1]: > 100 µM (not active)

Compound: N#C/C(=C/c1ccccc1)c1nn(CCO)c(N)c1C#N
EC50 [4]: 6.55 µM (active)

Compound: CN1CCN(c2ccccc2NC(=O)C(Cc2ccccc2)n2cccc2)CC1 (centres undefined)
AC50 [5]: 12.3 µM (active)
AC50 [6]: 6.39 µM (active)
IC50 [2]: > 100 µM (active)
AC50 [7]: 6.11 µM (active)
AC50 [8]: 17.5 µM (active)

Compound: C/C(=N\NC(=O)c1cccnc1)c1ccc(-n2ccnc2)cc1
EC50 [4]: 5.46 µM (active)
